Test [1] concerns human multiple myeloma cell line MM.1S. As to the kind of experiment: Cell viability assay (Cell Counting Kit-8), MM.1S. Conditions: MM1.S, 72 hours, CCK-8, absorbance 450 nm. The test is classed as cell-based. As to the method: (§1) To evaluate the cytotoxicity of the compounds synthesized in the Preparation Examples against cancer cells, a cell viability assay following treatment with the synthesized compounds was performed using a T-cell leukemia cell line Jurkat (KCLB, Cat# 40152), a human acute monocytic leukemia cell line MV-4-11 (ATCC, Cat# CRL-9591), and a human multiple myeloma cell line MM.1S (ATCC, Cat# CRL-2974).
(§2) As a culture medium for the cell lines, an RPMI medium containing 10 % heat-inactivated FBS and 1 % penicillin/streptomycin (P/S) antibiotics was used. The culture medium was stored refrigerated and warmed in a 37 °C water bath before use. Each cell line was used for the test after a stabilization period of at least 2 weeks after thawing, and cell culture was performed based on information provided by the cell line manufacturer regarding the thawing and subculture conditions.
(§3) The Jurkat, MV-4-11, or MM.1S cell line was seeded in a 96-well plate at a density of 1 × 10^4 cells/well and incubated in a 37 °C CO2 incubator overnight. After incubation, a prepared test compound was applied to each cell line, and the cells were incubated in a 37 °C CO2 incubator for 72 hours. After 72 hours of incubation, a Cell Counting Kit-8 (Dojindo, Cat# CK04-20) reagent was added, and the cells were incubated in a 37 °C CO2 incubator. Then, the absorbance was measured at 450 nm using a SpectraMax M3 Microplate Reader (N=2, duplicate measurement). The evaluation concentrations for evaluating the cytotoxicity of the compounds were 10 points: 100 µM, 20 µM, 4 µM, 0.8 µM, 0.16 µM, 0.032 µM, 0.0064 µM, 0.00128 µM, 0.000256 µM, and 0 µM, and the test was performed at 2 wells/concentration point (n=2). A GI50 was derived using a GraphPad Prism program.
Background: Tetrazolium assays rely on reduction of a dye to a coloured formazan, in cell work by metabolically active cells.

Test [2] has as its system human acute monocytic leukemia cell line MV-4-11. In words: Cell viability assay (Cell Counting Kit-8), MV-4-11. As to conditions: MV4-11, 72 hours, CCK-8, absorbance 450 nm. The test is classed as cell-based. As to the method: as §1, §2, §3
For another test, the target named is T1, Cereblon (CRBN) protein (Homo sapiens, UniProt Q96SW2).
T1 construct: purchased Eurofins (E3scan service); host or cells: HEK-293
In words: CRBN binding affinity, E3scan (Eurofins) competition binding with qPCR read-out. Conditions: lower % Ctrl = stronger binding, DMSO = 100 % Ctrl, lenalidomide = 0 % Ctrl. As to the method: Specifically, CRBN was produced using a HEK-293 cell line and labeled with DNA for qPCR detection. Streptavidin-coated magnetic beads were treated with a biotinylated small-molecule ligand at room temperature for 30 minutes to generate an affinity resin for E3scan analysis. The liganded beads were blocked with excess biotin and washed with a blocking buffer (SeaBlock (Pierce), 1 % BSA, 0.05 % Tween 20, 1 mM DTT) to remove unbound ligands and prevent non-specific binding. […] The test compound was prepared as a 100× stock in 100 % DMSO and diluted directly into the assay solution. All reactions were performed in a polypropylene 384-well plate with a final reaction volume of 0.02 mL. […] The CRBN concentration in the eluate was measured by qPCR. […] A lower '% Ctrl' indicates a stronger binding affinity. […] ((test compound signal−positive control signal)/(negative control signal−positive control signal)) × 100 [formula]

Test [3] relates to T-cell leukemia cell line Jurkat. As to the kind of experiment: Cell viability assay (Cell Counting Kit-8), Jurkat. The test is classed as cell-based. Conditions: Homo sapiens, 72 hours, CCK-8, absorbance 450 nm. As to the method: as §1, §2, §3

Molecules are shown by their SMILES.

The GI50 is the concentration giving 50% growth inhibition. Read a low GI50 as more potent growth inhibition. On to `O=C1CCC(N2Cc3cc(C(=O)c4cc5ccccc5[nH]4)ccc3C2=O)C(=O)N1` (stereo not drawn) [Compound 3, 3-(5-(1H-indole-2-carbonyl)-1-oxoisoindolin-2-yl)piperidine-2,6-dione], for which the GI50 in test [1], in test [2] and in test [3] was at most 0.1 µM throughout. In addition, on Cereblon (CRBN) protein, the “CRBN binding affinity (% Ctrl @ 5µM)” value is recorded as “A (0 ≤ '% Ctrl' < 0.1)”.
As for `O=C1CCC(N2Cc3cc(C(=O)c4c[nH]c5ccccc45)ccc3C2=O)C(=O)N1` (stereo not drawn) [Compound 4, 3-(5-(1H-indole-3-carbonyl)-1-oxoisoindolin-2-yl)piperidine-2.6-dione], the GI50 in test [1] was at most 0.1 µM; in test [3], 0.1 to 1 µM. Further, the “CRBN binding affinity (% Ctrl @ 5µM)” value on Cereblon (CRBN) protein is on record as “B (0.1 ≤ '% Ctrl' < 1)”.
As to `O=C1CCC(N2Cc3cc(C(=O)c4cc5cc(F)ccc5[nH]4)ccc3C2=O)C(=O)N1` (stereo not drawn) [Compound 9, 3-(5-(5-fluoro-1H-indole-2-carbonyl)-1-oxoisoindolin-2-yl)piperidine-2,6-dione], the GI50 in test [1] and in test [3] was at most 0.1 µM each time.
Turning to `O=C1CCC(N2Cc3cc(C(=O)c4ccc(Nc5ccccc5)cc4)ccc3C2=O)C(=O)N1` (stereo not drawn) [Compound 15, 3-(1-oxo-5-(4-(phenylamino)benzoyl)isoindolin-2-yl)piperidine-2,6-dione], the results for the GI50 in test [1], in test [2] and in test [3] were at most 0.1 µM, at most 0.1 µM and 0.1 to 1 µM, respectively. For the same molecule, at Cereblon (CRBN) protein, the “CRBN binding affinity (% Ctrl @ 5µM)” value is given as “A (0 ≤ '% Ctrl' < 0.1)”.
With `O=C1CCC(N2Cc3cc(C(=O)c4c[nH]c5cc(Cl)ccc45)ccc3C2=O)C(=O)N1` (stereo not drawn) [Compound 18, 3-(5-(6-chloro-1H-indole-3-carbonyl)-1-oxoisoindolin-2-yl)piperidine-2,6-dione], the GI50 in test [1] was at most 0.1 µM; in test [2], at most 0.1 µM; in test [3], 0.1 to 1 µM.
As for `O=C1CCC(N2Cc3cc(C(=O)c4cc5ccc(F)cc5[nH]4)ccc3C2=O)C(=O)N1` (stereo not drawn) [Compound 19, 3-(5-(6-fluoro-1H-indole-2-carbonyl)-1-oxoisoindolin-2-yl)piperidine-2,6-dione], the GI50 in test [1] and in test [3] was at most 0.1 µM each time.
With `O=C1CCC(N2Cc3cc(C(=O)c4cc5ccc(Cl)cc5[nH]4)ccc3C2=O)C(=O)N1` (stereo not drawn) [Compound 20, 3-(5-(6-chloro-1H-indole-2-carbonyl)-1-oxoisoindolin-2-yl)piperidine-2,6-dione], the GI50 in test [1] and in test [3] was at most 0.1 µM throughout.
Take `O=C1CCC(N2Cc3cc(C(=O)c4cc(-c5ccccc5)c[nH]4)ccc3C2=O)C(=O)N1` (stereo not drawn) [Compound 27, 3-(1-oxo-5-(4-phenyl-1H-pyrrole-2-carbonyl)isoindolin-2-yl)piperidine-2,6-dione]: the GI50 in test [1] and in test [3] was at most 0.1 µM throughout. Moreover, the “CRBN binding affinity (% Ctrl @ 5µM)” value on Cereblon (CRBN) protein is “A (0 ≤ '% Ctrl' < 0.1)”.
In the case of `O=C1CCC(N2Cc3cc(C(=O)N4Cc5cccc6cccc4c56)ccc3C2=O)C(=O)N1` (stereo not drawn) [Compound 31, 3-(5-(1,2-dihydrobenxo[cd]indole-1-carbonyl)-1-oxoisoindolin-2-yl)piperidine-2,6-dione], the GI50 in test [1] is at most 0.1 µM; in test [3], 0.1 to 1 µM. In addition, the “CRBN binding affinity (% Ctrl @ 5µM)” value at Cereblon (CRBN) protein is recorded as “A (0 ≤ '% Ctrl' < 0.1)”.
Regarding `O=C1CCC(N2Cc3cc(C(=O)c4ccc(-c5ccccc5)cc4)ccc3C2=O)C(=O)N1` (stereo not drawn) [Compound 33, 3-(5-([1,1'-biphenyl]-4-carbonyl)-1-oxoisoindolin-2-yl)piperidine-2,6-dione], the GI50 in test [1] and in test [3] was at most 0.1 µM each time.
On to `O=C1CCC(N2Cc3cc(C(=O)c4cc5ccccc5o4)ccc3C2=O)C(=O)N1` (stereo not drawn) [Compound 34, 3-(5-(benzofuran-2-carbonyl)-1-oxoisoindolin-2-yl)piperidine-2,6-dione], for which the concentration for 50% growth inhibition (GI50) in test [1] and in test [3] was at most 0.1 µM throughout. Further, the “CRBN binding affinity (% Ctrl @ 5µM)” value on Cereblon (CRBN) protein is recorded as “A (0 ≤ '% Ctrl' < 0.1)”.
In the case of `O=C1CCC(N2Cc3cc(C(=O)c4cn(-c5ccccc5)c5ccccc45)ccc3C2=O)C(=O)N1` (stereo not drawn) [Compound 35, 3-(1-oxo-5-(1-phenyl-1H-indole-3-carbonyl)isoindolin-2-yl)piperidine-2,6-dione], the GI50 in test [1] and in test [3] was at most 0.1 µM in each case. Further, the “CRBN binding affinity (% Ctrl @ 5µM)” value at Cereblon (CRBN) protein was “A (0 ≤ '% Ctrl' < 0.1)”.
With `O=C1CCC(N2Cc3cc(C(=O)N4Cc5ccccc5C4)ccc3C2=O)C(=O)N1` (stereo not drawn) [Compound 36, 3-(5-(isoindoline-2-carbonyl)-1-oxoisoindolin-2-yl)piperidine-2,6-dione], the “CRBN binding affinity (% Ctrl @ 5µM)” value on Cereblon (CRBN) protein is recorded as “A (0 ≤ '% Ctrl' < 0.1)”. This molecule registered a GI50 in test [3] of at most 0.1 µM.
Take `O=C1CCC(N2Cc3cc(C(=O)c4coc5ccccc45)ccc3C2=O)C(=O)N1` (stereo not drawn) [Compound 37, 3-(5-(benzofuran-3-carbonyl)-1-oxoisoindolin-2-yl)piperidine-2,6-dione]: the results for the GI50 in test [1] and in test [3] were at most 0.1 µM and 0.1 to 1 µM, respectively. Further, on Cereblon (CRBN) protein, the “CRBN binding affinity (% Ctrl @ 5µM)” value is “C (1 ≤ % Ctrl' < 10)”.
`O=C1CCC(N2Cc3cc(C(=O)c4ccc5c(c4)OCO5)ccc3C2=O)C(=O)N1` (stereo not drawn) [Compound 42, 3-(5-(benzo[d][1,3]dioxole-5-carbonyl)-1-oxoisoindolin-2-yl)piperidine-2,6-dione]: the 50% growth inhibitory concentration (GI50) in test [1] and in test [3] was at most 0.1 µM each time.
As to `O=C1CCC(N2Cc3cc(C(=O)c4ccc5ccccc5c4)ccc3C2=O)C(=O)N1` (stereo not drawn) [Compound 44, 3-(5-(2-naphthoyl)-1-oxoisoindolin-2-yl)piperidine-2,6-dione], the GI50 in test [1] was over 10 µM; in test [3], at most 0.1 µM.
The like results for `CN(C)c1ccc(C(=O)c2ccc3c(c2)CN(C2CCC(=O)NC2=O)C3=O)cc1` (stereo not drawn) [Compound 46, 3-(5-(4-(dimethylamino)benzoyl)-1-oxoisoindolin-2-yl)piperidine-2,6-dione] were, in that order, at most 0.1 µM and at most 0.1 µM.
Turning to `O=C1CCC(N2Cc3cc(C(=O)c4ccc(Br)cc4)ccc3C2=O)C(=O)N1` (stereo not drawn) [Compound 49, 3-(5-(4-bromobenzoyl)-1-oxeisoindolin-2-yl)piperidine-2,6-dione], the figures for the GI50 in test [1] and in test [3] were 1 to 10 µM and at most 0.1 µM, respectively.
For `O=C1CCC(N2Cc3cc(C(=O)c4ccc(O)cc4)ccc3C2=O)C(=O)N1` (stereo not drawn) [Compound 52, 3-(5-(4-hydroxybenzoyl)-1-oxoisoindolin-2-yl)piperidine-2,6-dione], the concentration for 50% growth inhibition (GI50) in test [1] is at most 0.1 µM; in test [3], 0.1 to 1 µM.
On to `O=C1CCC(N2Cc3cc(C(=O)c4ccc(C5CCCCC5)cc4)ccc3C2=O)C(=O)N1` (stereo not drawn) [Compound 55, 3-(5-(4-cyclohexylbenzoyl)-1-oxoisoindolin-2-yl)piperidine-2,6-dione], for which the GI50 in test [1] and in test [3] was at most 0.1 µM in each case.
As for `Cn1c(C(=O)c2ccc3c(c2)CN(C2CCC(=O)NC2=O)C3=O)cc2ccccc21` (stereo not drawn) [Compound 59, 3-(5-(1-methyl-1H-indole-2-carbonyl)-1-oxoisoindolin-2-yl)piperidine-2,6-dione], the GI50 in test [1] is at most 0.1 µM; in test [3], 0.1 to 1 µM.
For `CC(C)(C)c1ccc(C(=O)c2ccc3c(c2)CN(C2CCC(=O)NC2=O)C3=O)cc1` (stereo not drawn) [Compound 63, 3-(5-(4-(tert-butyl)benzoyl)-1-oxoisoindolin-2-yl)piperidine-2,6-dione], the GI50 in test [1] and in test [3] was at most 0.1 µM each time.
Take `O=C1CCC(N2Cc3cc(C(=O)c4ccc5ccccc5n4)ccc3C2=O)C(=O)N1` (stereo not drawn) [Compound 70, 3-(1-oxo-5-(quinoline-2-carbonyl)isoindolin-2-yl)piperidine-2,6-dione]: the values for the GI50 in test [1] and in test [3] were over 10 µM and 1 to 10 µM, respectively.
